This note sets out measurements from patent US20250066388A1, “1,3,4,7-TETRAHYDRO-2H-PYRROLO[3',2':5,6]PYRIDO[2,3-B][1,4]OXAZEPINE BCL-2 INHIBITORS” (AbbVie Inc., priority 2022, published 2025).

For orientation: Ki means the dissociation constant of the complex between target and ligand, obtained from inhibition or displacement. A high value points to a looser hold on the target. Broadly, the EC50 is the midpoint of the concentration-response curve.

Assay [1] has as its target Bcl-xL protein (Homo sapiens (Human), UniProt Q07817). Put plainly: TR-FRET binding assay, Bcl-xL. To be noted: F-Bak peptide probe. In general terms: Time-resolved FRET reads energy transfer from a long-lived donor to a nearby acceptor.
Assay [2] addresses Bcl-2 protein (Homo sapiens (Human), UniProt P10415). Put plainly: TR-FRET binding assay, Bcl-2. Conditions: F-Bak peptide probe, GST-Bcl-2.
Assay [3] deals with RS4;11 cells. The experiment in a line: Cell viability assay (CellTiter-Glo) in RS4;11 cells. The format is cell-based. Conditions: 24 hours, 10% Human Serum. The procedure:
The acute lymphoblastic leukemia (ALL) human cell line RS4;11 (ATCC, Manassas VA) was used as the primary human cell line to assess the cellular activity of compound of the present Examples in vitro and their efficacy in vivo. […] The acute lymphoblastic leukemia cell line Molt-4, which is derived from immature T-lymphoid cells (T-ALL), was used as a counter screen assay.
3000 Cells (0.1×10^6/mL) were seeded in each well of 384-well plate and were treated for 24 hours in a humidified chamber with 5% CO2. Cell viability was determined by CellTiter-Glo as described by the manufacturer's instructions (Promega Corporation, Madison, WI, USA).
(Cellular ATP, detected with luciferase, serves as a proxy for viable cell number.)

Assay [4] relates to Molt-4 cells. The experiment in a line: Cell viability counter screen (CellTiter-Glo) in Molt-4 cells. The format is cell-based. To be noted: 24 hours, 10% Human Serum. A digest of the protocol:
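3000 cells/well (0.1×10^6/mL) were treated with compound for 24 hours in 5% CO2. Viability read by CellTiter-Glo luminescence; Molt-4 (T-ALL) served as the counter screen to RS4;11 (ALL).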
(The purpose of a counterscreen is to sort out artefacts and off-target activity.)

Bcl-xL protein, sequence (Q07817 other isoform, or with tags, fused parts or gaps): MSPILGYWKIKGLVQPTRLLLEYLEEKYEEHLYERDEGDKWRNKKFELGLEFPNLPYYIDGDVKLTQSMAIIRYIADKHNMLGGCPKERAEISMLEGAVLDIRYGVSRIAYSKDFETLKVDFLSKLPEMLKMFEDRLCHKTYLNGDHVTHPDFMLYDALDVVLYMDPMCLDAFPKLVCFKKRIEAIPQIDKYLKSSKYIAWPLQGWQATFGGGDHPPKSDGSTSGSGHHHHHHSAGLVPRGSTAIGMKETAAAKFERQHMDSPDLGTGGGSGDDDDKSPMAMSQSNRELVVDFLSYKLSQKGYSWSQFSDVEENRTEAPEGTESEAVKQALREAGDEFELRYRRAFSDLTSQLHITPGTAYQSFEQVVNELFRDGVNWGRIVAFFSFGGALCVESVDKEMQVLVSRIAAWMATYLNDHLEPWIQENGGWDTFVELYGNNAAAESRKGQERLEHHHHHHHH
Bcl-2 protein, sequence (P10415 other isoform, or with tags, fused parts or gaps): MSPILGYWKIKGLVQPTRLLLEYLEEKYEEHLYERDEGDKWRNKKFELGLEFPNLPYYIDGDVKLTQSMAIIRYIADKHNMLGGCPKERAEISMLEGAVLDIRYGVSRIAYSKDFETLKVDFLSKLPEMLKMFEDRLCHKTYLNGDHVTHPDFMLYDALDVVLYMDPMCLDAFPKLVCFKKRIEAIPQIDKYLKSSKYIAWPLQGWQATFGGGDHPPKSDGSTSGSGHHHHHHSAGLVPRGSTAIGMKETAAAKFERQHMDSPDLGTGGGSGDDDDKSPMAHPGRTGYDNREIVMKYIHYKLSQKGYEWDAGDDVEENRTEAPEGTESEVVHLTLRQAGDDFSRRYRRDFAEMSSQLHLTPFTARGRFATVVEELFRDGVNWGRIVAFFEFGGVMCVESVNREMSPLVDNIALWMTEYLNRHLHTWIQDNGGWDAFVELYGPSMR

For the compound `CC1(C)CC(c2ccc(Cl)cc2)=C2CN3CCN(c4ccc(C(=O)NS(=O)(=O)c5ccc(NCC6(O)COC6)c([N+](=O)[O-])c5)c(N5CCCOc6nc7[nH]ccc7cc65)c4)C[C@H]3COCCCO[C@@H]2C1` [Example 17, 4-((4aS,10aR)-14-(4-chlorophenyl)-12,12-dimethyl-1,2,4a,5,8,9,10a,11,13,15-decahydro-7H,12H-benzo[f]pyrazino[2,1-c][1,8]dioxa[4]azacycloundecin-3(4H)-yl)-2-(3,4-dihydro-2H-pyrrolo[3′,2′:5,6]pyrido[2,3-b][1,4]oxazepin-1(7H)-yl)-N-((4-(((3-hydroxyoxetan-3-yl)methyl)amino)-3-nitrophenyl)sulfonyl)benzamide], the Ki came to 6.31 nM in assay [1] and 0.761 nM in assay [2]. The EC50 was 2.82 nM in assay [3] and 723 nM in assay [4].

With `CC1(C)CC(c2ccc(Cl)cc2)=C2CN3CCN(c4ccc(C(=O)NS(=O)(=O)c5ccc(NCC6(O)CCOCC6)c([N+](=O)[O-])c5)c(N5CCCOc6nc7[nH]ccc7cc65)c4)C[C@H]3COCCCO[C@@H]2C1` [Example 18, 4-((4aS,10aR)-14-(4-chlorophenyl)-12,12-dimethyl-1,2,4a,5,8,9,10a,11,13,15-decahydro-7H,12H-benzo[f]pyrazino[2,1-c][1,8]dioxa[4]azacycloundecin-3(4H)-yl)-2-(3,4-dihydro-2H-pyrrolo[3′,2′:5,6]pyrido[2,3-b][1,4]oxazepin-1(7H)-yl)-N-((4-(((4-hydroxytetrahydro-2H-pyran-4-yl)methyl)amino)-3-nitrophenyl)sulfonyl)benzamide], the values for the inhibition constant (Ki) in assay [1] and in assay [2] were 8.31 nM and 0.223 nM, respectively. Also, the 50% effective concentration (EC50) in assay [3] was found to be 1.43 nM; in assay [4], 426 nM.

As for `CC1(C)CC(c2ccc(Cl)cc2)=C2CN3CCN(c4ccc(C(=O)NS(=O)(=O)c5ccc(OCC6(F)CCN(C7COC7)CC6)c([N+](=O)[O-])c5)c(N5CCCOc6nc7[nH]ccc7cc65)c4)C[C@H]3COCCCO[C@@H]2C1` [Example 19, 4-((4aS,10aR)-14-(4-chlorophenyl)-12,12-dimethyl-1,2,4a,5,8,9,10a,11,13,15-decahydro-7H,12H-benzo[f]pyrazino[2,1-c][1,8]dioxa[4]azacycloundecin-3(4H)-yl)-2-(3,4-dihydro-2H-pyrrolo[3′,2′:5,6]pyrido[2,3-b][1,4]oxazepin-1(7H)-yl)-N-((4-((4-fluoro-1-(oxetan-3-yl)piperidin-4-yl)methoxy)-3-nitrophenyl)sulfonyl)benzamide], the inhibition constant (Ki) in assay [1] stood at 2.23 nM; in assay [2] it was 0.475 nM. Also, the EC50 in assay [3] stood at 0.881 nM; in assay [4], 132 nM.

With `C[C@@H]1CO[C@@H](COc2ccc(S(=O)(=O)NC(=O)c3ccc(N4CCN5CC6=C(c7ccc(Cl)cc7)CC(C)(C)C[C@H]6OCCCOC[C@@H]5C4)cc3N3CCCOc4nc5[nH]ccc5cc43)cc2[N+](=O)[O-])CO1` [Example 20, 4-((4aS,10aR)-14-(4-chlorophenyl)-12,12-dimethyl-1,2,4a,5,8,9,10a,11,13,15-decahydro-7H,12H-benzo[f]pyrazino[2,1-c][1,8]dioxa[4]azacycloundecin-3(4H)-yl)-2-(3,4-dihydro-2H-pyrrolo[3′,2′:5,6]pyrido[2,3-b][1,4]oxazepin-1(7H)-yl)-N-((4-(((2R,5R)-5-methyl-1,4-dioxan-2-yl)methoxy)-3-nitrophenyl)sulfonyl)benzamide], the inhibition constant Ki in assay [1] was determined as 17.3 nM; in assay [2] it was 0.977 nM. Also, the 50% effective concentration (EC50) in assay [3] was 5.21 nM; in assay [4], 1610 nM.

Take `CO[C@H]1C[C@@H](CNc2ccc(S(=O)(=O)NC(=O)c3ccc(N4CCN5CC6=C(c7ccc(Cl)cc7)CC(C)(C)C[C@H]6OCCCOC[C@@H]5C4)cc3N3CCCOc4nc5[nH]ccc5cc43)cc2[N+](=O)[O-])C1` [Example 24, 4-((4aS,10aR)-14-(4-chlorophenyl)-12,12-dimethyl-1,2,4a,5,8,9,10a,11,13,15-decahydro-7H,12H-benzo[f]pyrazino[2,1-c][1,8]dioxa[4]azacycloundecin-3(4H)-yl)-2-(3,4-dihydro-2H-pyrrolo[3′,2′:5,6]pyrido[2,3-b][1,4]oxazepin-1(7H)-yl)-N-((4-((((1s,3s)-3-methoxycyclobutyl)methyl)amino)-3-nitrophenyl)sulfonyl)benzamide]: the Ki came out at 10.3 nM in assay [1] and 0.248 nM in assay [2]. Moreover, the EC50 was 4.9 nM in assay [3] and greater than 10000 nM in assay [4].

For the compound `CC1(C)CC(c2ccc(Cl)cc2)=C2CN3CCN(c4ccc(C(=O)NS(=O)(=O)c5ccc(NC[C@H]6CC[C@H](N7CCOCC7)CC6)c([N+](=O)[O-])c5)c(N5CCCOc6nc7[nH]ccc7cc65)c4)C[C@H]3COCCCO[C@@H]2C1` [Example 28, 4-((4aS,10aR)-14-(4-chlorophenyl)-12,12-dimethyl-1,2,4a,5,8,9,10a,11,13,15-decahydro-7H,12H-benzo[f]pyrazino[2,1-c][1,8]dioxa[4]azacycloundecin-3(4H)-yl)-2-(3,4-dihydro-2H-pyrrolo[3′,2′:5,6]pyrido[2,3-b][1,4]oxazepin-1(7H)-yl)-N-((4-((((1r,4r)-4-morpholinocyclohexyl)methyl)amino)-3-nitrophenyl)sulfonyl)benzamide], the Ki in assay [1] is 4.71 nM; in assay [2], 0.833 nM. Further, the EC50 in assay [3] turned out to be 0.862 nM; in assay [4], 274 nM.

Turning to `CO[C@H]1C[C@H](Nc2ccc(S(=O)(=O)NC(=O)c3ccc(N4CCN5CC6=C(c7ccc(Cl)cc7)CC(C)(C)C[C@H]6OCCCOC[C@@H]5C4)cc3N3CCCOc4nc5[nH]ccc5cc43)cc2[N+](=O)[O-])C1` [Example 30, 4-((4aS,10aR)-14-(4-chlorophenyl)-12,12-dimethyl-1,2,4a,5,8,9,10a,11,13,15-decahydro-7H,12H-benzo[f]pyrazino[2,1-c][1,8]dioxa[4]azacycloundecin-3(4H)-yl)-2-(3,4-dihydro-2H-pyrrolo[3′,2′:5,6]pyrido[2,3-b][1,4]oxazepin-1(7H)-yl)-N-((4-(((1r,3r)-3-methoxycyclobutyl)amino)-3-nitrophenyl)sulfonyl)benzamide], the Ki in assay [1] is 39 nM; in assay [2], 2.58 nM. Further, the EC50 in assay [3] was 4.1 nM; in assay [4], greater than 10000 nM.

Regarding `CN1CCC(Nc2ccc(S(=O)(=O)NC(=O)c3ccc(N4CCN5CC6=C(c7ccc(Cl)cc7)CC(C)(C)C[C@H]6OCCCOC[C@@H]5C4)cc3N3CCCOc4nc5[nH]ccc5cc43)cc2[N+](=O)[O-])CC1` [Example 31, 4-((4aS,10aR)-14-(4-chlorophenyl)-12,12-dimethyl-1,2,4a,5,8,9,10a,11,13,15-decahydro-7H,12H-benzo[f]pyrazino[2,1-c][1,8]dioxa[4]azacycloundecin-3(4H)-yl)-2-(3,4-dihydro-2H-pyrrolo[3′,2′:5,6]pyrido[2,3-b][1,4]oxazepin-1(7H)-yl)-N-((4-((1-methylpiperidin-4-yl)amino)-3-nitrophenyl)sulfonyl)benzamide], the inhibitory constant (Ki) in assay [1] came out at 5.75 nM; in assay [2] it was 0.51 nM. The figures for the EC50 in assay [3] and in assay [4] were 3.24 nM and 1220 nM, respectively.

For the compound `CO[C@H]1CC[C@H](COc2ccc(S(=O)(=O)NC(=O)c3ccc(N4CCN5CC6=C(c7ccc(Cl)cc7)CC(C)(C)C[C@H]6OCCCOC[C@@H]5C4)cc3N3CCCOc4nc5[nH]ccc5cc43)cc2[N+](=O)[O-])OC1` [Example 33, 4-((4aS,10aR)-14-(4-chlorophenyl)-12,12-dimethyl-1,2,4a,5,8,9,10a,11,13,15-decahydro-7H,12H-benzo[f]pyrazino[2,1-c][1,8]dioxa[4]azacycloundecin-3(4H)-yl)-2-(3,4-dihydro-2H-pyrrolo[3′,2′:5,6]pyrido[2,3-b][1,4]oxazepin-1(7H)-yl)-N-((4-(((2R,5S)-5-methoxytetrahydro-2H-pyran-2-yl)methoxy)-3-nitrophenyl)sulfonyl)benzamide], the Ki in assay [1] is 28.6 nM; in assay [2], 0.272 nM. In addition, the EC50 in assay [3] worked out at 3.49 nM; in assay [4], 6080 nM.

Regarding `CC1(C)CC(c2ccc(Cl)cc2)=C2CN3CCN(c4ccc(C(=O)NS(=O)(=O)c5ccc(NC[C@H]6CC[C@@](C)(O)CC6)c([N+](=O)[O-])c5)c(N5CCCOc6nc7[nH]ccc7cc65)c4)C[C@H]3COCCCO[C@@H]2C1` [Example 36, 4-((4aS,10aR)-14-(4-chlorophenyl)-12,12-dimethyl-1,2,4a,5,8,9,10a,11,13,15-decahydro-7H,12H-benzo[f]pyrazino[2,1-c][1,8]dioxa[4]azacycloundecin-3(4H)-yl)-2-(3,4-dihydro-2H-pyrrolo[3′,2′:5,6]pyrido[2,3-b][1,4]oxazepin-1(7H)-yl)-N-((4-((((1s,4s)-4-hydroxy-4-methylcyclohexyl)methyl)amino)-3-nitrophenyl)sulfonyl)benzamide], the values for the inhibitory constant (Ki) in assay [1] and in assay [2] were 11.1 nM and 0.0607 nM, respectively. Besides, the EC50 amounted to 1.47 nM in assay [3] and 117 nM in assay [4].
